Data from ChEMBL document CHEMBL3217678 (Medchemcomm, 2011).
Active and inactive are the calls of the source. No cut-off for these calls is given here.

Assays:
26S proteasome = experiment: Inhibition of human 20S proteasome using Suc-LLVY-AMC as substrate preincubated for 30 mins followed by substrate addition measured after 90 mins by fluorescence assay; assay type: protein-complex assay
[1] = molecular target: T1, 26S proteasome (Homo sapiens) (UniProt Q99460+P49721+P20618+P28074+P28062+P28065+P28072+O00487+P25786+P25787+P25788+P25789+P28066+P60900+O14818+Q8TAA3+P40306+A5LHX3+P49720+P28070+Q99436+Q16186+P35998+P62191+P43686+P62333+P17980+P62195+Q13200+O43242+O00232+O00231+Q15008+P51665+Q9UNM6+P55036+P48556+P60896); experiment: Inhibition of 20S proteasome in human HeLa cells expressing GFP-tagged ubiquitin G76V mutant at 23 uM after 16 hrs by fluorescence assay; assay type: cell-based
[2] = molecular target: T1, 26S proteasome (Homo sapiens); experiment: Inhibition of human 20S proteasome using Suc-LLVY-AMC as substrate assessed as decrease in enzyme velocity; assay type: protein-complex assay
[3] = molecular target: T1, 26S proteasome (Homo sapiens); conditions: HeLa, 26 nM
Description: Inhibition of 20S proteasome in human HeLa cells expressing GFP-tagged ubiquitin G76V mutant at 26 nM after 16 hrs by fluorescence assay

[4] = Half life in 100 fold molar excess of deuterated water in DMSO at 37 degC by [1H]-NMR analysis; assay type: physicochemical

Structure (SMILES)	IC50 (26S proteasome)	inhibition [1]	inhibition [2]	inhibition [3]	half-life [4]
CC(C)C[C@@H](NC(=O)[C@H](Cc1ccccc1)NC(=O)c1cnccn1)c1nsc(=O)o1	225 µM	inactive	Dose-dependent effect	–	–
CC(C)C[C@H](NC(=O)[C@H](Cc1ccccc1)NC(=O)c1cnccn1)B(O)O [BORTEZOMIB]	–	–	–	Active	–
CC(C)C[C@H](NC(=O)[C@H](Cc1ccccc1)NC(=O)c1cnccn1)c1nsc(=O)o1	108 µM	Active	Dose-dependent effect	–	156 h
COc1cccc(-c2nsc(=O)o2)c1	–	–	–	–	20 h
